21 compounds from ChEMBL document CHEMBL3400097, “Effect of arginine methylation on the RNA recognition and cellular uptake of Tat-derived peptides” (Bioorg Med Chem, 2015) can be followed below.

Usually Kd stands for the equilibrium constant for the complex coming apart.

One data set has as its system Jurkat. The data set can be described thus: Cellular uptake in human Jurkat cells at 7 to 120 uM after 15 mins by 6-carboxyfluorescein staining-based flow cytometry. It is filed as ADME, cell-based. As to conditions: 0.25 h; call rule not given here. For orientation: Flow cytometry measures light scatter and fluorescence of single cells or particles in a stream.
As to `N=C(N)NCCC[C@H](NC(=O)[C@H](CCCNC(=N)N)NC(=O)[C@H](CCCNC(=N)N)NC(=O)[C@H](CCC(N)=O)NC(=O)[C@H](CCCNC(=N)N)NC(=O)[C@H](CCCNC(=N)N)NC(=O)[C@H](CCCCN)NC(=O)[C@H](CCCCN)NC(=O)[C@H](CCCNC(=N)N)NC(=O)CNC(=O)[C@H](Cc1ccc(O)cc1)NC(=O)CCNC(=O)c1ccc2c(c1)C1(OC2=O)c2ccc(O)cc2Oc2cc(O)ccc21)C(N)=O`, the Drug uptake entry is listed as “Active”.

`CNC(=N)NCCC[C@H](NC(=O)CNC(=O)[C@H](Cc1ccc(O)cc1)NC(=O)CCNC(=O)c1ccc2c(c1)C1(OC2=O)c2ccc(O)cc2Oc2cc(O)ccc21)C(=O)N[C@@H](CCCCN)C(=O)N[C@@H](CCCCN)C(=O)N[C@@H](CCCNC(=N)N)C(=O)N[C@@H](CCCNC(=N)N)C(=O)N[C@@H](CCC(N)=O)C(=O)N[C@@H](CCCNC(=N)N)C(=O)N[C@@H](CCCNC(=N)N)C(=O)N[C@@H](CCCNC(=N)N)C(N)=O`: the Drug uptake result is recorded as “Active”.

As to `CNC(=N)NCCC[C@H](NC(=O)[C@H](CCCCN)NC(=O)[C@H](CCCCN)NC(=O)[C@H](CCCNC(=N)N)NC(=O)CNC(=O)[C@H](Cc1ccc(O)cc1)NC(=O)CCNC(=O)c1ccc2c(c1)C1(OC2=O)c2ccc(O)cc2Oc2cc(O)ccc21)C(=O)N[C@@H](CCCNC(=N)N)C(=O)N[C@@H](CCC(N)=O)C(=O)N[C@@H](CCCNC(=N)N)C(=O)N[C@@H](CCCNC(=N)N)C(=O)N[C@@H](CCCNC(=N)N)C(N)=O`, the Drug uptake result is “Active”.

As for `CNC(=N)NCCC[C@H](NC(=O)[C@H](CCCNC(=N)N)NC(=O)[C@H](CCCCN)NC(=O)[C@H](CCCCN)NC(=O)[C@H](CCCNC(=N)N)NC(=O)CNC(=O)[C@H](Cc1ccc(O)cc1)NC(=O)CCNC(=O)c1ccc2c(c1)C1(OC2=O)c2ccc(O)cc2Oc2cc(O)ccc21)C(=O)N[C@@H](CCC(N)=O)C(=O)N[C@@H](CCCNC(=N)N)C(=O)N[C@@H](CCCNC(=N)N)C(=O)N[C@@H](CCCNC(=N)N)C(N)=O`, the Drug uptake entry is “Active”.

Consider `CNC(=N)NCCC[C@H](NC(=O)[C@H](CCC(N)=O)NC(=O)[C@H](CCCNC(=N)N)NC(=O)[C@H](CCCNC(=N)N)NC(=O)[C@H](CCCCN)NC(=O)[C@H](CCCCN)NC(=O)[C@H](CCCNC(=N)N)NC(=O)CNC(=O)[C@H](Cc1ccc(O)cc1)NC(=O)CCNC(=O)c1ccc2c(c1)C1(OC2=O)c2ccc(O)cc2Oc2cc(O)ccc21)C(=O)N[C@@H](CCCNC(=N)N)C(=O)N[C@@H](CCCNC(=N)N)C(N)=O`, for which the Drug uptake entry is reported as “Active”.

As for `CNC(=N)NCCC[C@H](NC(=O)[C@H](CCCNC(=N)N)NC(=O)[C@H](CCC(N)=O)NC(=O)[C@H](CCCNC(=N)N)NC(=O)[C@H](CCCNC(=N)N)NC(=O)[C@H](CCCCN)NC(=O)[C@H](CCCCN)NC(=O)[C@H](CCCNC(=N)N)NC(=O)CNC(=O)[C@H](Cc1ccc(O)cc1)NC(=O)CCNC(=O)c1ccc2c(c1)C1(OC2=O)c2ccc(O)cc2Oc2cc(O)ccc21)C(=O)N[C@@H](CCCNC(=N)N)C(N)=O`, the Drug uptake result is “Active”.

Regarding `CNC(=N)NCCC[C@H](NC(=O)[C@H](CCCNC(=N)N)NC(=O)[C@H](CCCNC(=N)N)NC(=O)[C@H](CCC(N)=O)NC(=O)[C@H](CCCNC(=N)N)NC(=O)[C@H](CCCNC(=N)N)NC(=O)[C@H](CCCCN)NC(=O)[C@H](CCCCN)NC(=O)[C@H](CCCNC(=N)N)NC(=O)CNC(=O)[C@H](Cc1ccc(O)cc1)NC(=O)CCNC(=O)c1ccc2c(c1)C1(OC2=O)c2ccc(O)cc2Oc2cc(O)ccc21)C(N)=O`, the Drug uptake entry is given as “Active”.

Consider `CN(C)C(=N)NCCC[C@H](NC(=O)CNC(=O)[C@H](Cc1ccc(O)cc1)NC(=O)CCNC(=O)c1ccc2c(c1)C1(OC2=O)c2ccc(O)cc2Oc2cc(O)ccc21)C(=O)N[C@@H](CCCCN)C(=O)N[C@@H](CCCCN)C(=O)N[C@@H](CCCNC(=N)N)C(=O)N[C@@H](CCCNC(=N)N)C(=O)N[C@@H](CCC(N)=O)C(=O)N[C@@H](CCCNC(=N)N)C(=O)N[C@@H](CCCNC(=N)N)C(=O)N[C@@H](CCCNC(=N)N)C(N)=O`, for which the Drug uptake result is “Active”.

As to `CN(C)C(=N)NCCC[C@H](NC(=O)[C@H](CCCCN)NC(=O)[C@H](CCCCN)NC(=O)[C@H](CCCNC(=N)N)NC(=O)CNC(=O)[C@H](Cc1ccc(O)cc1)NC(=O)CCNC(=O)c1ccc2c(c1)C1(OC2=O)c2ccc(O)cc2Oc2cc(O)ccc21)C(=O)N[C@@H](CCCNC(=N)N)C(=O)N[C@@H](CCC(N)=O)C(=O)N[C@@H](CCCNC(=N)N)C(=O)N[C@@H](CCCNC(=N)N)C(=O)N[C@@H](CCCNC(=N)N)C(N)=O`, the Drug uptake entry is “Active”.

With `CN(C)C(=N)NCCC[C@H](NC(=O)[C@H](CCCNC(=N)N)NC(=O)[C@H](CCCCN)NC(=O)[C@H](CCCCN)NC(=O)[C@H](CCCNC(=N)N)NC(=O)CNC(=O)[C@H](Cc1ccc(O)cc1)NC(=O)CCNC(=O)c1ccc2c(c1)C1(OC2=O)c2ccc(O)cc2Oc2cc(O)ccc21)C(=O)N[C@@H](CCC(N)=O)C(=O)N[C@@H](CCCNC(=N)N)C(=O)N[C@@H](CCCNC(=N)N)C(=O)N[C@@H](CCCNC(=N)N)C(N)=O`, the Drug uptake entry is “Active”.

Turning to `CN(C)C(=N)NCCC[C@H](NC(=O)[C@H](CCC(N)=O)NC(=O)[C@H](CCCNC(=N)N)NC(=O)[C@H](CCCNC(=N)N)NC(=O)[C@H](CCCCN)NC(=O)[C@H](CCCCN)NC(=O)[C@H](CCCNC(=N)N)NC(=O)CNC(=O)[C@H](Cc1ccc(O)cc1)NC(=O)CCNC(=O)c1ccc2c(c1)C1(OC2=O)c2ccc(O)cc2Oc2cc(O)ccc21)C(=O)N[C@@H](CCCNC(=N)N)C(=O)N[C@@H](CCCNC(=N)N)C(N)=O`, the Drug uptake entry is reported as “Active”.

As to `CN(C)C(=N)NCCC[C@H](NC(=O)[C@H](CCCNC(=N)N)NC(=O)[C@H](CCC(N)=O)NC(=O)[C@H](CCCNC(=N)N)NC(=O)[C@H](CCCNC(=N)N)NC(=O)[C@H](CCCCN)NC(=O)[C@H](CCCCN)NC(=O)[C@H](CCCNC(=N)N)NC(=O)CNC(=O)[C@H](Cc1ccc(O)cc1)NC(=O)CCNC(=O)c1ccc2c(c1)C1(OC2=O)c2ccc(O)cc2Oc2cc(O)ccc21)C(=O)N[C@@H](CCCNC(=N)N)C(N)=O`, the Drug uptake result was “Active”.

For `CN(C)C(=N)NCCC[C@H](NC(=O)[C@H](CCCNC(=N)N)NC(=O)[C@H](CCCNC(=N)N)NC(=O)[C@H](CCC(N)=O)NC(=O)[C@H](CCCNC(=N)N)NC(=O)[C@H](CCCNC(=N)N)NC(=O)[C@H](CCCCN)NC(=O)[C@H](CCCCN)NC(=O)[C@H](CCCNC(=N)N)NC(=O)CNC(=O)[C@H](Cc1ccc(O)cc1)NC(=O)CCNC(=O)c1ccc2c(c1)C1(OC2=O)c2ccc(O)cc2Oc2cc(O)ccc21)C(N)=O`, the Drug uptake result is on record as “Active”.

Regarding `C/N=C(\NC)NCCC[C@H](NC(=O)CNC(=O)[C@H](Cc1ccc(O)cc1)NC(=O)CCNC(=O)c1ccc2c(c1)C1(OC2=O)c2ccc(O)cc2Oc2cc(O)ccc21)C(=O)N[C@@H](CCCCN)C(=O)N[C@@H](CCCCN)C(=O)N[C@@H](CCCNC(=N)N)C(=O)N[C@@H](CCCNC(=N)N)C(=O)N[C@@H](CCC(N)=O)C(=O)N[C@@H](CCCNC(=N)N)C(=O)N[C@@H](CCCNC(=N)N)C(=O)N[C@@H](CCCNC(=N)N)C(N)=O`, the Drug uptake result is on record as “Active”.

For `C/N=C(\NC)NCCC[C@H](NC(=O)[C@H](CCCCN)NC(=O)[C@H](CCCCN)NC(=O)[C@H](CCCNC(=N)N)NC(=O)CNC(=O)[C@H](Cc1ccc(O)cc1)NC(=O)CCNC(=O)c1ccc2c(c1)C1(OC2=O)c2ccc(O)cc2Oc2cc(O)ccc21)C(=O)N[C@@H](CCCNC(=N)N)C(=O)N[C@@H](CCC(N)=O)C(=O)N[C@@H](CCCNC(=N)N)C(=O)N[C@@H](CCCNC(=N)N)C(=O)N[C@@H](CCCNC(=N)N)C(N)=O`, the Drug uptake result is “Active”.

As for `C/N=C(\NC)NCCC[C@H](NC(=O)[C@H](CCCNC(=N)N)NC(=O)[C@H](CCCCN)NC(=O)[C@H](CCCCN)NC(=O)[C@H](CCCNC(=N)N)NC(=O)CNC(=O)[C@H](Cc1ccc(O)cc1)NC(=O)CCNC(=O)c1ccc2c(c1)C1(OC2=O)c2ccc(O)cc2Oc2cc(O)ccc21)C(=O)N[C@@H](CCC(N)=O)C(=O)N[C@@H](CCCNC(=N)N)C(=O)N[C@@H](CCCNC(=N)N)C(=O)N[C@@H](CCCNC(=N)N)C(N)=O`, the Drug uptake result is recorded as “Active”.

`C/N=C(\NC)NCCC[C@H](NC(=O)[C@H](CCC(N)=O)NC(=O)[C@H](CCCNC(=N)N)NC(=O)[C@H](CCCNC(=N)N)NC(=O)[C@H](CCCCN)NC(=O)[C@H](CCCCN)NC(=O)[C@H](CCCNC(=N)N)NC(=O)CNC(=O)[C@H](Cc1ccc(O)cc1)NC(=O)CCNC(=O)c1ccc2c(c1)C1(OC2=O)c2ccc(O)cc2Oc2cc(O)ccc21)C(=O)N[C@@H](CCCNC(=N)N)C(=O)N[C@@H](CCCNC(=N)N)C(N)=O`: the Drug uptake result is on record as “Active”.

Regarding `C/N=C(\NC)NCCC[C@H](NC(=O)[C@H](CCCNC(=N)N)NC(=O)[C@H](CCC(N)=O)NC(=O)[C@H](CCCNC(=N)N)NC(=O)[C@H](CCCNC(=N)N)NC(=O)[C@H](CCCCN)NC(=O)[C@H](CCCCN)NC(=O)[C@H](CCCNC(=N)N)NC(=O)CNC(=O)[C@H](Cc1ccc(O)cc1)NC(=O)CCNC(=O)c1ccc2c(c1)C1(OC2=O)c2ccc(O)cc2Oc2cc(O)ccc21)C(=O)N[C@@H](CCCNC(=N)N)C(N)=O`, the Drug uptake result is “Active”.

For the compound `C/N=C(\NC)NCCC[C@H](NC(=O)[C@H](CCCNC(=N)N)NC(=O)[C@H](CCCNC(=N)N)NC(=O)[C@H](CCC(N)=O)NC(=O)[C@H](CCCNC(=N)N)NC(=O)[C@H](CCCNC(=N)N)NC(=O)[C@H](CCCCN)NC(=O)[C@H](CCCCN)NC(=O)[C@H](CCCNC(=N)N)NC(=O)CNC(=O)[C@H](Cc1ccc(O)cc1)NC(=O)CCNC(=O)c1ccc2c(c1)C1(OC2=O)c2ccc(O)cc2Oc2cc(O)ccc21)C(N)=O`, the Drug uptake result is “Active”.

The next data set has as its system Nucleic Acid. Briefly: Binding affinity to HIV TAR RNA by electrophoretic mobility shift assay in presence of Escherichia coli tRNA.
Details: not given
The format is nucleic-acid assay, Human immunodeficiency virus. (In EMSA bound probe runs differently from free probe, usually more slowly.)
For the compound `C/N=C(\NC)NCCC[C@H](NC(=O)[C@H](CCCNC(=N)N)NC(=O)[C@H](CCC(N)=O)NC(=O)[C@H](CCCNC(=N)N)NC(=O)[C@H](CCCNC(=N)N)NC(=O)[C@H](CCCCN)NC(=O)[C@H](CCCCN)NC(=O)[C@H](CCCNC(=N)N)NC(=O)CNC(=O)[C@H](Cc1ccc(O)cc1)NC(C)=O)C(=O)N[C@@H](CCCNC(=N)N)C(N)=O`, the Kd was found to be 317 nM.

`C/N=C(\NC)NCCC[C@H](NC(=O)[C@H](CCCNC(=N)N)NC(=O)[C@H](CCCNC(=N)N)NC(=O)[C@H](CCC(N)=O)NC(=O)[C@H](CCCNC(=N)N)NC(=O)[C@H](CCCNC(=N)N)NC(=O)[C@H](CCCCN)NC(=O)[C@H](CCCCN)NC(=O)[C@H](CCCNC(=N)N)NC(=O)CNC(=O)[C@H](Cc1ccc(O)cc1)NC(C)=O)C(N)=O`: the Kd was determined as 262 nM.

Another data set relates to Jurkat. The data set can be described thus: Cytotoxicity against human Jurkat cells assessed as cell viability at 120 uM after 4 hrs by WST-1 assay. The format is cell-based.
Details: not given
For orientation: Tetrazolium dyes change colour on reduction, which living cells bring about.
For the compound `C/N=C(\NC)NCCC[C@H](NC(=O)[C@H](CCCNC(=N)N)NC(=O)[C@H](CCC(N)=O)NC(=O)[C@H](CCCNC(=N)N)NC(=O)[C@H](CCCNC(=N)N)NC(=O)[C@H](CCCCN)NC(=O)[C@H](CCCCN)NC(=O)[C@H](CCCNC(=N)N)NC(=O)CNC(=O)[C@H](Cc1ccc(O)cc1)NC(C)=O)C(=O)N[C@@H](CCCNC(=N)N)C(N)=O`, the Activity result is given as “Non-toxic”.

For the compound `C/N=C(\NC)NCCC[C@H](NC(=O)[C@H](CCCNC(=N)N)NC(=O)[C@H](CCCNC(=N)N)NC(=O)[C@H](CCC(N)=O)NC(=O)[C@H](CCCNC(=N)N)NC(=O)[C@H](CCCNC(=N)N)NC(=O)[C@H](CCCCN)NC(=O)[C@H](CCCCN)NC(=O)[C@H](CCCNC(=N)N)NC(=O)CNC(=O)[C@H](Cc1ccc(O)cc1)NC(C)=O)C(N)=O`, the Activity entry is listed as “Non-toxic”.
